# Source: patent US9309235B2, “SGC stimulators” (IRONWOOD PHARMACEUTICALS, INC., priority 2012, dated 2016)
# How the values were obtained:
# [1] = system: lambs with acute pulmonary hypertension; details: cited from earlier work; for effect on mean arterial pressure / pulmonary vasodilation / transpulmonary cGMP release / systemic arterial oxygenation: inhaled microparticles, awake lambs; for effect on mean arterial pressure / pulmonary vasodilation / transpulmonary cGMP release: U-46619 infusion
# [2] = molecular target: T1, Human soluble guanylate cyclase enzyme (hsGC) (Homo sapiens, UniProt Q02108+Q02153); assay: Purified human sGC enzyme synergy assay in the presence of sodium nitroprusside (SNP); format: biochemical; details: 30 μM compound in the presence of 1 μM SNP; fold increase over DMSO controls
# T1 construct: purchased Enzo Inc. ALX-201-177
# T1 sequence (Q02153 1-619): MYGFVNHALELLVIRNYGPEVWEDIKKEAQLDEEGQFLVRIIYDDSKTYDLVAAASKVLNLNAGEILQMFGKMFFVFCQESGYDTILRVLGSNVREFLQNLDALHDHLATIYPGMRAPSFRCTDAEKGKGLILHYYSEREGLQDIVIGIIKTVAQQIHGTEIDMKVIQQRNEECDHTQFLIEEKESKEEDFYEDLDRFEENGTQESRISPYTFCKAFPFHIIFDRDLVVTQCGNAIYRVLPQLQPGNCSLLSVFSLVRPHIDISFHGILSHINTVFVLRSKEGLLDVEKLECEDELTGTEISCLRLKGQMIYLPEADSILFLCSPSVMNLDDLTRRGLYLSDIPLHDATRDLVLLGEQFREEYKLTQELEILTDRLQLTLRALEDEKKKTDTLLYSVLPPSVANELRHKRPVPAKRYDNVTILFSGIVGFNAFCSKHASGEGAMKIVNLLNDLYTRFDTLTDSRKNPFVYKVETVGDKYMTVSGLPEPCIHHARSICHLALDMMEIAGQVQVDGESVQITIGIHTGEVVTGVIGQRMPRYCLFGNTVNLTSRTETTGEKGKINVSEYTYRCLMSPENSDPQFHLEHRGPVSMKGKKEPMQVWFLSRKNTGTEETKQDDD
# T1 sequence (Q02108 1-690): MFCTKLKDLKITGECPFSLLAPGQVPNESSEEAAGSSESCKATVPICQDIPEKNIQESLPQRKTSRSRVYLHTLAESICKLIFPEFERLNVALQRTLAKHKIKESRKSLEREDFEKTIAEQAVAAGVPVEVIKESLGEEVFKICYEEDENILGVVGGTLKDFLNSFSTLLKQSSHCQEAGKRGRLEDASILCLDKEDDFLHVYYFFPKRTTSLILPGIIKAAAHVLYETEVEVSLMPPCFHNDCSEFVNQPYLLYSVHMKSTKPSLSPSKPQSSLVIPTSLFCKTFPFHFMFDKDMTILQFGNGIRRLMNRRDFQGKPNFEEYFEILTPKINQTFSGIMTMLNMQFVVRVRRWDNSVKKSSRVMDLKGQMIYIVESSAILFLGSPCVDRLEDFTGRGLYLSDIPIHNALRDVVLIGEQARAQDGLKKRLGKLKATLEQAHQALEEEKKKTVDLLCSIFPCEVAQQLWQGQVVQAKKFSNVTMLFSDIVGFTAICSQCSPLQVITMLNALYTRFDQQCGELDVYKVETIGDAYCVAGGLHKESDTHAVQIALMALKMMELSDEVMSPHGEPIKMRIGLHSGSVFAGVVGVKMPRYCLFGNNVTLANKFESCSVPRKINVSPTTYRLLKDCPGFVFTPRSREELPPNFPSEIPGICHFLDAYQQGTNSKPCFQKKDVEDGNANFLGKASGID
# Protocol: Human soluble guanylate cyclase enzyme (hsGC) obtained from Enzo Inc. (P/N: ALX-201-177) was used to evaluate the activity of test compounds. The assay reactions contained 0.1 M Tris (pH 8.0), 0.5 mg/mL BSA (pH 8.0), 2 mM DTT, 2 mM MgCl2, 300 μM GTP, 1 mM 3-isobutyl-1-methylxanthine (IBMX) and 5 ng human soluble guanylate cyclase enzyme. Test compounds in DMSO were then added (2 μL, 10 or 30 μM final concentration) and incubated (water, 200 μL, 96-well plate format) at 37° C. for 30 minutes. The controls were carried out using 2 μL DMSO. After the 30 minute incubation, the reaction was stopped with the addition of 200 μL of cold methanol. The plate was then centrifuged at 3,200 rpm for 10 minutes at room temperature. Supernatants (200 μL) were collected and transferred to a new 96 well plate for analysis by HPLC LC/MS/MS.
# An 8 point cGMP (Sigma-Aldrich P/N: G6129) standard curve was prepared in assay buffer ranging from 0.156-20 μM. Samples for the cGMP standard curve were then diluted with an equal volume of methanol resulting in final cGMP concentrations of 0.078-10 μM.
# The cGMP standard curve was generated using GraphPad Prism Software.
# Calculations: Specific Activity was determined by the amount of cGMP formed (nmoles) per mg of sGC per min. Enzyme “fold-change” was calculated by dividing Specific Activity for test compounds by Specific Activity of DMSO controls. […]
# [3] = molecular target: T2, soluble guanylate cyclase (sGC) (Homo sapiens, UniProt Q02108+Q02153); assay: sGC-HEK-cGMP assay (run with SNP incubation); format: cell-based; details: for EC50: full concentration-response curve, with SNP incubation, read-out: HEK assay EC50-unconstrained; for EC50 / Emax: top not fitted to 100%; for Emax: maximum activity from full concentration-response curve, relative to positive control BAY 41-2272, read-out: HEK assay Emax-unconstrained (Percent); for Emax at 1 µM: test compound 1 μM, read-out: HEK assay (Percent Emax at 1 μM); for Emax at 1 µM / Emax at 10 µM / Emax at 30 µM: 10 μM SNP, Emax = 100% is BAY 41-2272 at 10 μM in the presence of 100 μM SNP; for Emax at 10 µM: test compound 10 μM, read-out: HEK assay (Percent Emax at 10 μM); for Emax at 30 µM: test compound 30 μM, read-out: HEK assay (Percent Emax at 30 μM)
# T2 construct: endogenously expressing soluble guanylate cyclase (sGC); endogenous in cells; host or cells: HEK293
# T2 sequence (Q02153 1-619): T1 sequence (Q02153 1-619)
# T2 sequence (Q02108 1-690): T1 sequence (Q02108 1-690)
# Protocol: (Assay Run with SNP Incubation)
# Human embryonic kidney cells (HEK293), endogenously expressing soluble guanylate cyclase (sGC), were used to evaluate the activity of test compounds. Compounds stimulating the sGC receptor should cause an increase in the intracellular concentration of cGMP. HEK 293 cells were seeded in Dulbecco's Modification of Eagle's Medium supplemented with fetal bovine serum (10% final) and L-glutamine (2 mM final) in a 200 μL volume at a density of 1×10^5 cells/well in a poly-D-lysine coated 96 well flat bottom plate and grown overnight at 37° C. Medium was aspirated and cells were washed with 1× Hank's Buffered Saline Salt Solution (200 μL). Cells were then incubated for 15 minutes at 37° C. with 200 μL of a 0.5 mM 3-isobutyl-1-methylxanthine (IBMX) solution. Test article and sodium nitroprusside solutions (x μM concentration for test article solution and 10 μM concentration for SNP solution; wherein x is one of the following concentrations);
# were then added to the assay mixture (2 μL each) and the resulting mixture incubated at 37° C. for 10 minutes. After the 10 minute incubation, the assay mixture was aspirated and 0.1M HCl (200 μL) was added to the cells. The plate was incubated at 4° C. for 30 minutes in the 0.1M HCl to stop the reaction and lyse the cells. The plates were then centrifuged at 1,200 g for 5 minutes at room temperature. Supernatants were collected and transferred to a new flat bottom 96 well plate for analysis by HPLC-MS. Vehicle controls were carried out using DMSO (1%) solutions. A known sGC stimulator, BAY 41-2272, was used as the positive control. Samples were diluted with an equal volume of 1 M Ammonium Acetate (pH 7) to neutralize samples for better chromatography. A 2× cGMP standard solution was prepared in 0.1 M HCl and then diluted with an equal volume of 1 M Ammonium Acetate, with the following final concentrations in nM: 1024, 512, 256, 128, 64, 32, 16, 8, 4, 2, 1. cGMP concentrations in the test plates were determined from each sample using the LC/MS conditions shown in Table 2 below and the calculated cGMP standard curve. EC50 values were calculated from concentration-response curves generated with GraphPad Prism Software.
# The biological activities of some of the compounds of Formula I determined with the sGC—HEK assay with SNP incubation are summarized in Tables 3A and 3B.
# [4] = system: Guinea pig tracheal smooth muscle; assay: Electrical field stimulated guinea pig tracheal smooth muscle contraction (ex vivo); details: pooled from three experiments; 95% CI 0.78-0.94; read-out: IC50, inhibition of EFS-induced tracheal smooth muscle contraction
# From the text: Animals: Guinea pig, Dunkin Hartley, male, Full barrier-bred and certified free of specific micro-organisms on receipt 525-609 g on the experimental day, Harlan UK Ltd. Guinea pigs were housed in a group of 4 in solid-bottomed cages with Gold Flake bedding in a controlled environment (airflow, temperature and humidity). Food (FD1, Special Diet Services) and water were provided ad libitum.
# On each experimental day, a guinea pig was killed by exposure to a rising concentration of CO2 and the trachea removed. The trachea was cleaned of extraneous tissue and cut open longitudinally in a line opposite the muscle, opened out and cut into strips 2-3 cartilage rings wide. […] Tissues were washed with Kreb's buffer and stimulated using the previously determined sub-maximal voltage for 1 hour to establish a stable baseline contraction prior to assessment of compound activity. *“Novel and Versatile Superfusion System. […]
# A cumulative dose response curve (DRC) to each test substance was then performed and changes in smooth muscle contraction measured. The effect of each test substance in each experiment was expressed as a percentage inhibition of the baseline contraction, normalized to the relevant vehicle controls. […] The data from all three experiments was pooled, the DRC plotted, and the test substance potency and efficacy determined.
Structure (SMILES),effect on mean arterial pressure [1],pulmonary vasodilation [1],transpulmonary cGMP release [1],EC50 [3] [µM],Emax [3] [%],Emax at 1 µM [3] [%],Emax at 10 µM [3] [%],Emax at 30 µM [3] [%],also measured
Nc1nc(-c2nn(Cc3ccccc3F)c3ncccc23)ncc1C1CC1 [BAY 41-2272],without significant effect,dose dependent pulmonary vasodilation,increased transpulmonary cGMP release,,,,,,
Nc1nc(-c2nn(Cc3ccccc3F)c3ncccc23)nc(N)c1N1CCOCC1 [BAY 41-8543],without significant effect,dose dependent pulmonary vasodilation,increased transpulmonary cGMP release,,,,,,magnitude and duration of pulmonary vasodilation induced by iNO ([1]; after inhaling microparticles): augmented; systemic arterial oxygenation [1]: increased systemic arterial oxygenation
O=C(O)CCCCN(CCc1ccccc1OCc1ccc(CCc2ccccc2)cc1)Cc1ccc(C(=O)O)cc1 [BAY 58-2667],without significant effect,dose dependent pulmonary vasodilation,increased transpulmonary cGMP release,,,,,,pulmonary vasodilation and transpulmonary cGMP release after treatment with ODQ ([1]; inhaled microparticles after intravenous ODQ): greatly enhanced; systemic arterial oxygenation [1]: increased systemic arterial oxygenation
Nc1ccnc(-c2cc(-c3ccon3)n(Cc3ccsc3)n2)n1 [Compound I-1],,,,1 to 5,60 to 80,20 to 40,40 to 60,60 to 80,Enzyme Activity (increase at 30 μM with SNP) [2]: D (D = 10 or <20 fold increase)
Oc1nc(-c2cc(-c3ccon3)n(Cc3ccsc3)n2)ncc1F [Compound I-2],,,,0.5 to 1,40 to 60,20 to 40,40 to 60,40 to 60,Enzyme Activity (increase at 30 μM with SNP) [2]: D (D = 10 or <20 fold increase)
Oc1nc(-c2cc(-c3ccon3)n(Cc3sccc3F)n2)ncc1F [Compound I-3],,,,0.01 to 0.1,40 to 60,40 to 60,40 to 60,60 to 80,
Oc1nc(-c2cc(-c3ccon3)n(Cc3cccs3)n2)ncc1F [Compound I-4],,,,5 to 10,60 to 80,0 to 10,40 to 60,40 to 60,
CC(C)[N+]1(C)[C@@H]2CC[C@H]1CC(OC(=O)C(CO)c1ccccc1)C2 (stereo partly shown) [Ipratropium bromide],,,,,,,,,IC50 [4]: 0.00086 µM
"O=c1onc2cnc3ccccc3n12 [ODQ, 1H-[1,2,4]oxadiazolo[4,3-a]quinoxalin-1-one]",,,,,,,,,pulmonary vasodilator effect of iNO ([1]; intravenous administration): markedly reduced
